Assay results taken from patent US12421229B2, “Hydropyrido[1,2-α]pyrazine compounds for the treatment of autoimmune disease” (Hoffmann-La Roche Inc., priority 2019, dated 2025).

Target: T1, human TLR9 (Homo sapiens, UniProt Q9NR96)
T1 construct: host or cells: HEK293 (HEK-Blue hTLR9)
T1 sequence (Q9NR96 26-1032): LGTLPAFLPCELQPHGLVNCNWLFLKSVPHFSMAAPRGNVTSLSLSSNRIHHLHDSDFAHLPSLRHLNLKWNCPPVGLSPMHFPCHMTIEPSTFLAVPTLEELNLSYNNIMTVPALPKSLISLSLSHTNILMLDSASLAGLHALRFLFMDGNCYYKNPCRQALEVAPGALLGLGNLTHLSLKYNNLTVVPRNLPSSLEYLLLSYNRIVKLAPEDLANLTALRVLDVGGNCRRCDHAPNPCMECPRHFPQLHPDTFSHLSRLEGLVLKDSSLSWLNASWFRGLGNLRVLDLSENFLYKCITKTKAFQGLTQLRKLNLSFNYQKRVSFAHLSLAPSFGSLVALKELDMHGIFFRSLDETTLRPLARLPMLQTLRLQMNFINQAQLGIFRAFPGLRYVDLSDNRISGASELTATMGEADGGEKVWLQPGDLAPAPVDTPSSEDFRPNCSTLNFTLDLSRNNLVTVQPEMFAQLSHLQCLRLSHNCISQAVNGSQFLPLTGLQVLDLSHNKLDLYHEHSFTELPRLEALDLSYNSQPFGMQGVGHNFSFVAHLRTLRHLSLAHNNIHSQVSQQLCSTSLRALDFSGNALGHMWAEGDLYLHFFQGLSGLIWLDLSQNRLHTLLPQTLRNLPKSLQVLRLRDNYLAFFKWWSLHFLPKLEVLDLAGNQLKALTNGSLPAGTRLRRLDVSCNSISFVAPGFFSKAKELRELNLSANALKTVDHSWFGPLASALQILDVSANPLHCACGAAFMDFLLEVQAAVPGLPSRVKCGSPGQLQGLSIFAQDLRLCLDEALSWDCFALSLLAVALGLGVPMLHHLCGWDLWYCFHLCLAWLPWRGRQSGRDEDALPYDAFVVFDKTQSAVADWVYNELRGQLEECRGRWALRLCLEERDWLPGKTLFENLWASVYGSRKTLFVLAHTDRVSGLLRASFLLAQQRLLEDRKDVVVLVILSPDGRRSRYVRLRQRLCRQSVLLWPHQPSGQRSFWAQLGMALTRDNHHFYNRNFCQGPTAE
Assay: HEK293-Blue-hTLR-9 cells assay
Type: cell-based
Details: HEK293-Blue-hTLR9 cells, ODN2006 stimulation, 20 hrs, SEAP reporter; read-out: HEK/hTLR9 IC50
Source text: A stable HEK293-Blue-hTLR-9 cell line was purchased from InvivoGen (Cat. #: hkb-htlr9, San Diego, California, USA). These cells were originally designed for studying the stimulation of human TLR9 by monitoring the activation of NF-κB. A SEAP (secreted embryonic alkaline phosphatase) reporter gene was placed under the control of the IFN-β minimal promoter fused to five NF-κB and AP-1-binding sites. The SEAP was induced by activating NF-κB and AP-1 via stimulating HEK-Blue hTLR9 cells with TLR9 ligands. Therefore the reporter expression was declined by TLR9 antagonist under the stimulation of a ligand, such as ODN2006 (Cat. #: tlrl-2006-1, Invivogen, San Diego, California, USA), for incubation of 20 hrs. The cell culture supernatant SEAP reporter activity was determined using QUANTI-Blue™ kit (Cat. #: rep-qb1, Invivogen, San Diego, California, USA) at a wavelength of 640 nm, a detection medium that turns purple or blue in the presence of alkaline phosphatase.
HEK293-Blue-hTLR9 cells were incubated at a density of 250,000˜450,000 cells/mL in a volume of 170 μL in a 96-well plate in Dulbecco's Modified Eagle's medium (DMEM) containing 4.5 g/L glucose, 50 U/mL penicillin, […], 2 mM L-glutamine, 10% (v/v) heat-inactivated fetal bovine serum with addition of 20 μL test compound in a serial dilution in the presence of final DMSO at 1% and 10 μL of 20 uM ODN2006 in above DMEM, perform incubation under 37° C. in a CO2 incubator for 20 hrs. Then 20 μL of the supernatant from each well was incubated with 180 μL Quanti-blue substrate solution at 37° C. for 2 h and the absorbance was read at 620˜655 nm using a spectrophotometer. The signaling pathway that TLR9 activation leads to downstream NF-κB activation has been widely accepted, and therefore similar reporter assay was modified for evaluating TLR9 antagonist.

SMILES: [2H]c1ccc2c(N3C[C@@H]4C[C@H](Nc5ccc(C[C@@H]6CNCCO6)cc5)CCN4[C@H](C)C3)ccc(C#N)c2n1 [Example 22, 5-[(4R,8R,9aS)-4-methyl-8-[4-[[(2R)-morpholin-2-yl]methyl]anilino]-1,3,4,6,7,8,9,9a-octahydropyrido[1,2-a]pyrazin-2-yl]-2-deuterio-quinoline-8-carbonitrile]
- IC50: 84 nM

SMILES: C[C@@H]1CN(c2ccc(C#N)c3ncccc23)C[C@@H]2C[C@H](c3ccc(N4CCOC[C@@H](N)C4)nc3)CCN21 [Example 23, 5-[(4R,8R,9aS)-8[6-[(6S)-6-amino-1,4-oxazepan-4-yl]-3-pyridyl]-4-methyl-1,3,4,6,7,8,9,9a-octahydropyrido[1,2-a]pyrazin-2-yl]quinoline-8-carbonitrile]
- IC50: 75 nM

SMILES: C[C@@H]1CN(c2ccc(C#N)c3ncccc23)C[C@@H]2C[C@@H](c3ccc(C4CNCCO4)cc3)CCN21 (stereo partly drawn) [Example 24, 5-[(4R,8S,9aS)-4-methyl-8-(4-morpholin-2-ylphenyl)-1,3,4,6,7,8,9,9a-octahydropyrido[1,2-a]pyrazin-2-yl]quinoline-8-carbonitrile]
- IC50: 82 nM

SMILES: C[C@@H]1CN(c2ccc(C#N)c3ncccc23)C[C@@H]2C[C@@H](c3ccc(CC4CNCCO4)cc3)CCN21 (stereo partly drawn) [Example 26, 5-[(4R,8S,9aS)-4-methyl-8-[4-(morpholin-2-ylmethyl)phenyl]-1,3,4,6,7,8,9,9a-octahydropyrido[1,2-a]pyrazin-2-yl]quinoline-8-carbonitrile]
- IC50: 95 nM

SMILES: C[C@@H]1CN(c2ccc(C#N)c3ncccc23)C[C@@H]2C[C@H](c3ccc([C@@H]4CNCCO4)cc3)CCN21 [Example 27, 5-[(4R,8R,9aS)-4-methyl-8-[4-[(2R)-morpholin-2-yl]phenyl]-1,3,4,6,7,8,9,9a-octahydropyrido[1,2-a]pyrazin-2-yl]quinoline-8-carbonitrile]
- IC50: 72 nM

SMILES: CO[C@H]1CN(c2ccc(O[C@H]3CCN4[C@@H](C3)CN(c3ccc(C#N)c5ncccc35)C[C@H]4C)cn2)C[C@H]1N [Example 28, 5-[(4R,8S,9aS)-8-[[6-[(3R,4S)-3-amino-4-methoxy-pyrrolidin-1-yl]-3-pyridyl]oxy]-4-methyl-1,3,4,6,7,8,9,9a-octahydropyrido[1,2-a]pyrazin-2-yl]quinoline-8-carbonitrile]
- IC50: 44 nM

SMILES: C[C@@H]1CN(c2ccc(C#N)c3ncccc23)C[C@@H]2C[C@@H](Oc3cncc(N4CCNCC4)c3)CCN21 [Example 29, 5-[(4R,8S,9aS)-4-methyl-8-[(5-piperazin-1-yl-3-pyridyl)oxy]-1,3,4,6,7,8,9,9a-octahydropyrido[1,2-a]pyrazin-2-yl]quinoline-8-carbonitrile]
- IC50: 89 nM

SMILES: CO[C@@H]1CN(c2ccc(C3CN([C@@H]4CCN5[C@@H](C4)CN(c4ccc(C#N)c6ncccc46)C[C@H]5C)C3)cc2)C[C@H]1N [Example 30, 5-[(4R,8R,9aS)-8-[3-[4-[(3R,4R)-3-amino-4-methoxy-pyrrolidin-1-yl]phenyl]azetidin-1-yl]-4-methyl-1,3,4,6,7,8,9,9a-octahydropyrido[1,2-a]pyrazin-2-yl]quinoline-8-carbonitrile]
- IC50: 78 nM

SMILES: CO[C@H]1CN(c2ccc(C3CN([C@@H]4CCN5[C@@H](C4)CN(c4ccc(C#N)c6ncccc46)C[C@H]5C)C3)cc2)C[C@H]1N [Example 32, 5-[(4R,8R,9aS)-8-[3-[4-[(3R,4S)-3-amino-4-methoxy-pyrrolidin-1-yl]phenyl]azetidin-1-yl]-4-methyl-1,3,4,6,7,8,9,9a-octahydropyrido[1,2-a]pyrazin-2-yl]quinoline-8-carbonitrile]
- IC50: 33 nM

SMILES: [2H]c1ccc2c(N3C[C@@H]4C[C@H](Nc5ccc(C[C@H]6CNCCO6)cc5)CCN4[C@H](C)C3)ccc(C#N)c2n1 [Example 34, 5-[(4R,8R,9aS)-4-methyl-8-[4-[[(2S)-morpholin-2-yl]methyl]anilino]-1,3,4,6,7,8,9,9a-octahydropyrido[1,2-a]pyrazin-2-yl]-2-deuterio-quinoline-8-carbonitrile]
- IC50: 57 nM

SMILES: [2H]c1ccc2c(N3C[C@@H]4C[C@@H](N5CC(c6ccc(N7C[C@@H](N)[C@H](OC)C7)cc6)C5)CCN4[C@H](C)C3)ccc(C#N)c2n1 [Example 36]
- IC50: 32 nM

SMILES: [2H]c1ccc2c(N3C[C@@H]4C[C@H](N5CCN(c6ccncc6)CC5)CCN4[C@H](C)C3)ccc(C#N)c2n1 [Example 37, 5-[(4R,8R,9aS)-4-methyl-8-[4-(4-pyridyl)piperazin-1-yl]-1,3,4,6,7,8,9,9a-octahydropyrido[1,2-a]pyrazin-2-yl]-2-deuterio-quinoline-8-carbonitrile]
- IC50: 34 nM
